In article PMC6934184, “Selective DNA-PKcs inhibition extends the therapeutic index of localized radiotherapy and chemotherapy” (The Journal of Clinical Investigation, 2019) one finds inhibition data, which are given here for one molecule.

For this test, the target named is T1, FLT3 (Homo sapiens, UniProt P36888).
T1 construct: purchased Thermo Fisher Scientific (Life Technologies) SelectScreen
The experiment in a line: SelectScreen Z'LYTE. In kind it is biochemical. The gist of the method:
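SelectScreen broad panel; activity (Z'LYTE, Adapta) plus binding formats. ATP: Km app for CSF1R Z'LYTE; 10 for CAMK1 Adapta. Readout = % per kinase.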

T1 sequence (P36888 27-993): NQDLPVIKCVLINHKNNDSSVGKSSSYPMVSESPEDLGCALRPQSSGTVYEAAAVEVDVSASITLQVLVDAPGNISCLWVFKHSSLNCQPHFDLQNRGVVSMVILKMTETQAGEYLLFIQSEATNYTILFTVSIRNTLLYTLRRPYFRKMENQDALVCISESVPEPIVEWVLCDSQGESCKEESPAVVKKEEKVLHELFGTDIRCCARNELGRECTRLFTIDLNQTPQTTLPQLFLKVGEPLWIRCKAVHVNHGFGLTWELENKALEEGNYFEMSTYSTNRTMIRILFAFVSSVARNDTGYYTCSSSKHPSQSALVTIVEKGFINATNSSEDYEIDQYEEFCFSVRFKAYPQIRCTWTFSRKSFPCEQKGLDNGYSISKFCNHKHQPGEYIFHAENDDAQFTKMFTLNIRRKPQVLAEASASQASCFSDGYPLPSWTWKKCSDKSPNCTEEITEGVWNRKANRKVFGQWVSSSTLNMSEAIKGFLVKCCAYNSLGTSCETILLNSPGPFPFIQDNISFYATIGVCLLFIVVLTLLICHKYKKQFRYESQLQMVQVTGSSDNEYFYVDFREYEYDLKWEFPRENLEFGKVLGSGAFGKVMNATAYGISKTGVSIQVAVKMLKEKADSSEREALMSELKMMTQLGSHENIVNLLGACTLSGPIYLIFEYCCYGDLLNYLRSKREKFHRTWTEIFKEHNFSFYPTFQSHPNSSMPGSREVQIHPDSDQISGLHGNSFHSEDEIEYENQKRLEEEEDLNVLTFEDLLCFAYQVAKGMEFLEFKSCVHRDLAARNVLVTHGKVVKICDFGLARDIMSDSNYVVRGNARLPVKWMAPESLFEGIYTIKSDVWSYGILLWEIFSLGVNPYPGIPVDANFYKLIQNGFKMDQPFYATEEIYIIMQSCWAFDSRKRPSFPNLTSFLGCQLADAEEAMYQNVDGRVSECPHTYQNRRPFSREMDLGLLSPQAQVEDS

A word on the inhibition: it is the relative decrease from the control value, in per cent. With `CN(C(=O)CN1CCOCC1)c1ccc2sc3c(-c4cccc5c(=O)cc(N6CC7CCC(C6)O7)oc45)cccc3c2c1` [NU5455], the inhibition at 1 µM stood at 9.1%.
